Patent US10174037B2, “Dihydropyrazolopyrimidinone compounds as PDE2 inhibitors” (Merck Sharp & Dohme Corp., priority 2015, dated 2019)
Read-outs that look alike come from different tables or passages of the source.

Tests used:
Rhesus PDE2A3 = Rhesus PDE2A3 (Macaca mulatta, UniProt B3VTJ2); assay: PDE2 fluorescence polarization (IMAP FP) assay, rhesus PDE2A3; type: biochemical, rhesus macaque
human PDE2A1 = human PDE2A1 (Homo sapiens (Human), UniProt O00408); assay: PDE selectivity IMAP FP assay, human PDE2A1; type: biochemical; conditions: Human PDE2
human PDE2A1, sequence (O00408 other isoform, or with tags, fused parts or gaps): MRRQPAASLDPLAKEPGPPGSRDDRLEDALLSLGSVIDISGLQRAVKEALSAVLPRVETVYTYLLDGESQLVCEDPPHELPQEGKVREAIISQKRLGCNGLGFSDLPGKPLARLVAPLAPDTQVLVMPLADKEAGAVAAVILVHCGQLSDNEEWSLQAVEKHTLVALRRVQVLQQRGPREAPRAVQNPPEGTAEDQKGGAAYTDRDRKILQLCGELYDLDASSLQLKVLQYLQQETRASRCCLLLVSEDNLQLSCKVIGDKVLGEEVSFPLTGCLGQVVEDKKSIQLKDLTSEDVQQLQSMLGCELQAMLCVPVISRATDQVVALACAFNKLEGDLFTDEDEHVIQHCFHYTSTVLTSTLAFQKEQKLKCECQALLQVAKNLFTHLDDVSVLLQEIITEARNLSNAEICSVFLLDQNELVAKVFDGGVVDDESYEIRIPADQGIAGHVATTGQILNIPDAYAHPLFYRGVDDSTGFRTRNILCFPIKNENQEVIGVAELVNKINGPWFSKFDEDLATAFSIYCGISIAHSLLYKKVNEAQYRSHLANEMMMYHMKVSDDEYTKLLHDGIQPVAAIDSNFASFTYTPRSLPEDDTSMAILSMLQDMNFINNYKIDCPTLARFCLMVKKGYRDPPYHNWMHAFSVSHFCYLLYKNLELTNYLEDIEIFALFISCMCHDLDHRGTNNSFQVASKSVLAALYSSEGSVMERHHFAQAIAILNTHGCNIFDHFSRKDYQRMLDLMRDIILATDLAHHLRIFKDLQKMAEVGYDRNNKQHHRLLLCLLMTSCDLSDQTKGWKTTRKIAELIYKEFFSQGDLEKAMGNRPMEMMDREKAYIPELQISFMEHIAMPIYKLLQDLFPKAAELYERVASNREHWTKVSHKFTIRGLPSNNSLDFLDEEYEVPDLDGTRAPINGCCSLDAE
Outline: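 Compound titrations run against PDE2 in Tris HCl pH 7.2 buffer with MgCl2 and DTT for 60 min at room temperature, using 50 nM FAM-cAMP plus 1000 nM cGMP and enzyme giving 20% conversion.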

[1] = Lab B, read-out: Rhesus PDE2 Ki (nM) Lab B
[2] = Lab B, read-out: Human PDE2 Ki (nM) Lab B
[3] = Lab A, read-out: Rhesus PDE2 Ki (nM) Lab A
[4] = Lab A, read-out: Human PDE2 Ki (nM) Lab A

Rhesus PDE2A3, sequence (B3VTJ2 1-941): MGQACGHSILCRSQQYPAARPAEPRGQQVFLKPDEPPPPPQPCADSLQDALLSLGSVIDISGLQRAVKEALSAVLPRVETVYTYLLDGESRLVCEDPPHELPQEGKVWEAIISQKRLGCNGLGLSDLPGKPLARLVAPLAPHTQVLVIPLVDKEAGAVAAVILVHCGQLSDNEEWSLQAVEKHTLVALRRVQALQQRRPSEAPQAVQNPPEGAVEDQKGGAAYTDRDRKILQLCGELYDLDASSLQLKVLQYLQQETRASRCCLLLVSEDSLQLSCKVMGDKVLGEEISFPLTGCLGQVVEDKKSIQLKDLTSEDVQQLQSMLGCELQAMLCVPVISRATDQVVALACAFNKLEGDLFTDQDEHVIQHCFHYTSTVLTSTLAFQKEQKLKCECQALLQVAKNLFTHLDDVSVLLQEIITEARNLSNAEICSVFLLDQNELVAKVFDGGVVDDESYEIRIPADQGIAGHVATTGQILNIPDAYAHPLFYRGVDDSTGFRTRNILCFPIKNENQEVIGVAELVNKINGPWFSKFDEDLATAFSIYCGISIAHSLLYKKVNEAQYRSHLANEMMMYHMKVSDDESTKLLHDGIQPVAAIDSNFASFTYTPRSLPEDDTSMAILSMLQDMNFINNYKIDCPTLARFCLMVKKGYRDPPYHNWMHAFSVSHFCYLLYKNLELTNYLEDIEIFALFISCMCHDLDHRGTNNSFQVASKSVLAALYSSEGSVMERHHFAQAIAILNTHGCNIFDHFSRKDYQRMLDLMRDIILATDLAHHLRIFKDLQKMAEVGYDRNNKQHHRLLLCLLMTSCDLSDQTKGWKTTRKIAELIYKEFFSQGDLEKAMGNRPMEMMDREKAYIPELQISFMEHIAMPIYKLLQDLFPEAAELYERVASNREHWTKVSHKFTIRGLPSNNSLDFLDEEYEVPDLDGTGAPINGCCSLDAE

`CC(C)C(c1ccc(C(F)F)cc1)n1nc(CO)c2c(=O)[nH]c(N(C)C)nc21` (single isomer, unassigned) [Example 90, (R)- or (S)-1-(1-(4-(Difluoromethyl)phenyl)-2-methylpropyl)-6-(dimethylamino)-3-(hydroxymethyl)-1H-pyrazolo[3,4-d]pyrimidin-4(5H)-one] showed a Ki (Rhesus PDE2A3; [1]) of 2.3 nM and a Ki (human PDE2A1; [2]) of 1.1 nM.
`Cc1nn(C(C)c2ccc(C(F)(F)F)cc2)c2nc(N(C)C)[nH]c(=O)c12` (stereo not drawn) [Example 270, 6-(Dimethylamino)-3-methyl-1-{1-[4-(trifluoromethyl)phenyl]ethyl}-1,5-dihydro-4H-pyrazolo[3,4-d]pyrimidin-4-one] gave a Ki (Rhesus PDE2A3; [3]) of 6 nM and a Ki (human PDE2A1; [4]) of 3.9 nM.
For `CC(C)C(c1ccc(C(C)(F)F)cc1F)n1nc(CO)c2c(=O)[nH]c(N(C)C)nc21` (single isomer, unassigned) [Example 118, (R)- or (S)-1-(1-(4-(1,1-Difluoroethyl)-2-fluorophenyl)-2-methylpropyl)-6-(dimethylamino)-3-(hydroxymethyl)-1H-pyrazolo[3,4-d]pyrimidin-4(5H)-one], the Ki (Rhesus PDE2A3; [1]) was 0.44 nM and the Ki (human PDE2A1; [2]) was 0.42 nM.
`COc1nc2c(c(C)nn2C(C)c2ccc(C(F)(F)F)cc2)c(=O)[nH]1` (stereo not drawn) [Example 59, 6-Methoxy-3-methyl-1-{1-[4-(trifluoromethyl)phenyl]ethyl}-1,5-dihydro-4H-pyrazolo[3,4-d]pyrimidin-4-one] was tested, and the Ki (Rhesus PDE2A3; [3]) was 1140 nM and the Ki (human PDE2A1; [4]) was 760 nM.
`CCC(c1ccc(C(F)(F)F)cc1)n1nc(C(F)F)c2c(=O)[nH]c(O)nc21` (single isomer, unassigned) [Example 286, (S)- or (R)-3-(Difluoromethyl)-6-hydroxy-1-(1-(4-(trifluoromethyl)phenyl)propyl)-1H-pyrazolo[3,4-d]pyrimidin-4(5H)-one] showed a Ki (Rhesus PDE2A3; [1]) of 1.5 nM and a Ki (human PDE2A1; [2]) of 2.2 nM.
Compound `CC(C)C(c1ccc(C(C)(F)F)cc1)n1nc(CO)c2c(=O)[nH]c(N(C)C)nc21` (single isomer, unassigned) [Example 138, (R)- or (S)-1-(1-(4-(1,1-Difluoroethyl)phenyl)-2-methylpropyl)-6-(dimethylamino)-3-(hydroxymethyl)-1H-pyrazolo[3,4-d]pyrimidin-4(5H)-one] has a Ki (Rhesus PDE2A3; [1]) of 0.41 nM and a Ki (human PDE2A1; [2]) of 0.19 nM.
`CN(C)c1nc2c(c(CF)nn2C(c2ccc(C(F)(F)F)cc2F)C2CC2)c(=O)[nH]1` (single isomer, unassigned) [Example 203, (S)- or (R)-1-(Cyclopropyl(2-fluoro-4-(trifluoromethyl)phenyl)methyl)-6-(dimethylamino)-3-(fluoromethyl)-1H-pyrazolo[3,4-d]pyrimidin-4(5H)-one] was tested, and the Ki (Rhesus PDE2A3; [1]) was 0.74 nM and the Ki (human PDE2A1; [2]) was 0.61 nM.
For `CC(C)C(c1ccc(C(C)(F)F)cc1)n1nc(CF)c2c(=O)[nH]c(N(C)C)nc21` (single isomer, unassigned) [Example 207, (S)- or (R)-1-(1-(4-(1,1-Difluoroethyl)phenyl)-2-methylpropyl)-6-(dimethylamino)-3-(fluoromethyl)-1H-pyrazolo[3,4-d]pyrimidin-4(5H)-one], the Ki (Rhesus PDE2A3; [1]) was 0.043 nM and the Ki (human PDE2A1; [2]) was 0.03 nM.
`C[C@H](c1ccc(C(F)(F)F)c(F)c1)n1nc(CF)c2c(=O)[nH]c(O)nc21` (mixture of isomers) [Example 34, (R)- and (S)-1-(1-(3-Fluoro-4-(trifluoromethyl)phenyl)ethyl)-3-(fluoromethyl)-6-hydroxy-H-pyrazolo[3,4-d]pyrimidin-4(5H)-one] gave a Ki (Rhesus PDE2A3; [1]) of 2.4 nM and a Ki (human PDE2A1; [2]) of 2.1 nM.
`CC(C)c1ccc(C(C(C)C)n2nc(CO)c3c(=O)[nH]c(N(C)C)nc32)cc1` (single isomer, unassigned) [Example 78, (R)- or (S)-6-(Dimethylamino)-3-(hydroxymethyl)-1-(1-(4-isopropylphenyl)-2-methylpropyl)-1H-pyrazolo[3,4-d]pyrimidin-4(5H)-one] gave a Ki (Rhesus PDE2A3; [1]) of 0.14 nM and a Ki (human PDE2A1; [2]) of 0.11 nM.
In the case of `CC(c1ccc(OC(F)(F)F)cc1)n1nc(CO)c2c(=O)[nH]c(N(C)C)nc21` (single isomer, unassigned) [Example 148, (R)- or (S)-6-(Dimethylamino)-3-(hydroxymethyl)-1-(1-(4-(trifluoromethoxy)phenyl)ethyl)-1H-pyrazolo[3,4-d]pyrimidin-4(5H)-one], the Ki (Rhesus PDE2A3; [1]) was 3.3 nM and the Ki (human PDE2A1; [2]) was 2.6 nM.
For `CC(c1ccc(CC(F)(F)F)c(F)c1)n1nc(CO)c2c(=O)[nH]c(N(C)C)nc21` (single isomer, unassigned) [Example 100, (R)- or (S)-6-(Dimethylamino)-1-(1-(3-fluoro-4-(2,2,2-trifluoroethyl)phenyl)ethyl)-3-(hydroxymethyl)-1H-pyrazolo[3,4-d]pyrimidin-4(5H)-one], the Ki (Rhesus PDE2A3; [1]) was 1.1 nM and the Ki (human PDE2A1; [2]) was 0.88 nM.
With `CC(c1ccc(C(C)(F)F)cc1)n1nc(CF)c2c(=O)[nH]c(N(C)C)nc21` (single isomer, unassigned) [Example 195, (S)- or (R)-1-(1-(4-(1,1-Difluoroethyl)phenyl)ethyl)-6-(dimethylamino)-3-(fluoromethyl)-1H-pyrazolo[3,4-d]pyrimidin-4(5H)-one] the Ki (Rhesus PDE2A3; [1]) was 0.14 nM and the Ki (human PDE2A1; [2]) was 0.17 nM.
`CC(C)C(c1ccc(C(C)(F)F)cc1F)n1nc(CO)c2c(=O)[nH]c(N(C)C)nc21` (single isomer, unassigned) [Example 119, (S)- or (R)-(1-(4-(1,1-Difluoroethyl)-2-fluorophenyl)-2-methylpropyl)-6-(dimethylamino)-3-(hydroxymethyl)-1H-pyrazolo[3,4-d]pyrimidin-4(5H)-one] showed a Ki (Rhesus PDE2A3; [1]) of 0.036 nM and a Ki (human PDE2A1; [2]) of 0.024 nM.
Work on `CC(c1ccc(C(C)(F)F)c(F)c1)n1nc(CO)c2c(=O)[nH]c(N(C)C)nc21` (single isomer, unassigned) [Example 106, (R)- or (S)-1-(1-(4-(1,1-Difluoroethyl)-3-fluorophenyl)ethyl)-6-(dimethylamino)-3-(hydroxymethyl)-1H-pyrazolo[3,4-d]pyrimidin-4(5H)-one] yielded a Ki (Rhesus PDE2A3; [1]) of 6.2 nM and a Ki (human PDE2A1; [2]) of 3.6 nM.
In the case of `CC(c1ccc(C(C)(C)C)cc1)n1nc(CO)c2c(=O)[nH]c(O)nc21` (stereo not drawn) [Example 7, 1-(1-(4-tert-Butylphenyl)ethyl)-6-hydroxy-3-(hydroxymethyl)-1H-pyrazolo[3,4-d]pyrimidin-4(5H)-one], the Ki (Rhesus PDE2A3; [3]) was 51 nM, the Ki (Rhesus PDE2A3; [1]) was 64 nM and the Ki (human PDE2A1; [4]) was 27 nM. For the same compound, the Ki (human PDE2A1; [2]) was 59 nM.
`CC(c1ccc(C(F)(F)F)c(F)c1)n1nc(CF)c2c(=O)[nH]c(N(C)C)nc21` (single isomer, unassigned) [Example 169, (S)- or (R)-6-(Dimethylamino)-1-(1-(3-fluoro-4-(trifluoromethyl)phenyl)ethyl)-3-(fluoromethyl)-1H-pyrazolo[3,4-d]pyrimidin-4(5H)-one] showed a Ki (Rhesus PDE2A3; [1]) of 0.2 nM and a Ki (human PDE2A1; [2]) of 0.099 nM.
Compound `CCC(c1ccc(C(F)(F)F)cc1)n1nc(CF)c2c(=O)[nH]c(N(C)C)nc21` (single isomer, unassigned) [Example 173, (S)- or (R)-6-(Dimethylamino)-3-(fluoromethyl)-1-(1-(4-(trifluoromethyl)phenyl)propyl)-1H-pyrazolo[3,4-d]pyrimidin-4(5H)-one] has a Ki (Rhesus PDE2A3; [1]) of 0.096 nM and a Ki (human PDE2A1; [2]) of 0.063 nM.
`CCC(c1ccc(OC(F)F)c(F)c1)n1nc(CO)c2c(=O)[nH]c(N(C)C)nc21` (single isomer, unassigned) [Example 126, (R)- or (S)-1-(1-(4-(Difluoromethoxy)-3-fluorophenyl)propyl)-6-(dimethylamino)-3-(hydroxymethyl)-1H-pyrazolo[3,4-d]pyrimidin-4(5H)-one] was tested, and the Ki (Rhesus PDE2A3; [1]) was 0.45 nM and the Ki (human PDE2A1; [2]) was 0.3 nM.
For `CC(C)c1ccc(C(C2CC2)n2nc(CO)c3c(=O)[nH]c(N(C)C)nc32)cc1` (single isomer, unassigned) [Example 76, (R)- or (S)-1-(Cyclopropyl(4-isopropylphenyl)methyl)-6-(dimethylamino)-3-(hydroxymethyl)-1H-pyrazolo[3,4-d]pyrimidin-4(5H)-one], the Ki (Rhesus PDE2A3; [1]) was 0.21 nM and the Ki (human PDE2A1; [2]) was 0.22 nM.
With `CC(C)C(c1ccc(C(C)(F)F)cc1)n1nc(CO)c2c(=O)[nH]c(N(C)C)nc21` (single isomer, unassigned) [Example 139, (S)- or (R)-1-(1-(4-(1,1-Difluoroethyl)phenyl)-2-methylpropyl)-6-(dimethylamino)-3-(hydroxymethyl)-1H-pyrazolo[3,4-d]pyrimidin-4(5H)-one] the Ki (Rhesus PDE2A3; [1]) was 0.04 nM and the Ki (human PDE2A1; [2]) was 0.064 nM.
Compound `CC(c1ccc(C(F)(F)F)c(F)c1)n1nc(C(F)F)c2c(=O)[nH]c(O)nc21` (single isomer, unassigned) [Example 278, (S)- or (R)-3-(Difluoromethyl)-1-(1-(3-fluoro-4-(trifluoromethyl)phenyl)ethyl)-6-hydroxy-1H-pyrazolo[3,4-d]pyrimidin-4(5H)-one] has a Ki (Rhesus PDE2A3; [1]) of 1.2 nM and a Ki (human PDE2A1; [2]) of 1.6 nM.
With `O=c1[nH]c(O)nc2c1c(CF)nn2C(c1ccc(OC(F)(F)F)c(F)c1)C1CC1` (single isomer, unassigned) [Example 44] the Ki (Rhesus PDE2A3; [1]) was 9.8 nM and the Ki (human PDE2A1; [2]) was 10 nM.
With `CC(C)(C)c1ccc(C(C2CC2)n2nc(CC(F)(F)F)c3c(=O)[nH]c(O)nc32)cc1` (single isomer, unassigned) [Example 250, (R)- or (S)-1-((4-tert-Butylphenyl)(cyclopropyl)methyl)-6-hydroxy-3-(2,2,2-trifluoroethyl)-1H-pyrazolo(3,4-d]pyrimidin-4(5H)-one] the Ki (Rhesus PDE2A3; [1]) was 26 nM and the Ki (human PDE2A1; [2]) was 27 nM.
`CCC(c1ccc(C(F)(F)F)cc1F)n1nc(CF)c2c(=O)[nH]c(N(C)C)nc21` (single isomer, unassigned) [Example 198, (R)- or (S)-6-(Dimethylamino)-1-(1-(2-fluoro-4-(trifluoromethyl)phenyl)propyl)-3-(fluoromethyl)-1H-pyrazolo[3,4-d]pyrimidin-4(5H)-one] showed a Ki (Rhesus PDE2A3; [1]) of 0.068 nM and a Ki (human PDE2A1; [2]) of 0.048 nM.
Work on `CC(C)C(c1ccc(C(F)(F)F)c(F)c1)n1nc(CC(F)(F)F)c2c(=O)[nH]c(O)nc21` (single isomer, unassigned) [Example 258] yielded a Ki (Rhesus PDE2A3; [1]) of 10 nM and a Ki (human PDE2A1; [2]) of 9.7 nM.
